Measurements published in patent US12662489B2 (Sitryx Therapeutics Limited, priority 2023, dated 2026).

Tests used:
[1] = molecular target: T1, MTHFD1 recombinant human enzyme (Homo sapiens, UniProt P11586); test: MTHFD1 inhibition assay (NAD(P)H-Glo luminescence); conditions: MTHFD1 IC50, recombinant human enzyme 200 nM, NADP, band
T1 sequence (P11586 2-291 limits assumed): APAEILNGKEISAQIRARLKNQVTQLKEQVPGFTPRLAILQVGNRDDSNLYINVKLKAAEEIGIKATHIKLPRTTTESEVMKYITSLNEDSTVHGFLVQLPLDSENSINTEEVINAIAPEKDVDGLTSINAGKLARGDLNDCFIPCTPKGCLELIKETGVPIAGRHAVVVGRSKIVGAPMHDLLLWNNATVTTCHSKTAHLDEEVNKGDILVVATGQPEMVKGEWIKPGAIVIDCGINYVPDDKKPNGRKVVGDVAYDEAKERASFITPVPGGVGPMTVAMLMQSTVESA

[2] = molecular target: T2, MTHFD2 recombinant human enzyme (Homo sapiens, UniProt P13995); test: MTHFD2 inhibition assay (NAD(P)H-Glo luminescence); conditions: for MTHFD1/MTHFD2 IC50 ratio: selectivity of MTHFD2 inhibition over MTHFD1, band
T2 sequence (P13995 36-350): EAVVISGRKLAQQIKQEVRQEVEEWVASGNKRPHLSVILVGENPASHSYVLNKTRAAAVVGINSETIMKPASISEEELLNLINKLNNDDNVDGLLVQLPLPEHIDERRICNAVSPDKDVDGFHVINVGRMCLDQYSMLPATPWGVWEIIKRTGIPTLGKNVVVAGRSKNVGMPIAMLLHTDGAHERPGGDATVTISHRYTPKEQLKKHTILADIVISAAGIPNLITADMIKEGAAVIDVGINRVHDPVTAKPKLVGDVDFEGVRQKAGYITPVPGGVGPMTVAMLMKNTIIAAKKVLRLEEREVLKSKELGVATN

| IC50 [1] [nM] | IC50 [2] [nM] | MTHFD1/MTHFD2 IC50 ratio [2] | SMILES |
| --- | --- | --- | --- |
| 1 to 10 | 1 to 10 | F (<3) | COC[C@H]1CN(c2ccc3c4c(c(=O)oc3c2C)CN(C(=O)c2ccc(C(=O)NS(=O)(=O)N(C)C)c(O[C@@H]3C[C@@H]5C[C@@H]5C3)c2F)CC4)CCN1C [Example 13, 2-(((1R,3r,5S)-bicyclo[3.1.0]hexan-3-yl)oxy)-N-(N,N-dimethylsulfamoyl)-3-fluoro-4-(8-((R)-3-(methoxymethyl)-4-methylpiperazin-1-yl)-7-methyl-5-oxo-1,3,4,5-tetrahydro-2H-chromeno[3,4-c]pyridine-3-carbonyl)benzamide] |
| 100 to 1000 | 100 to 1000 | F (<3) | COC[C@H]1CN(c2cc(C)c3c4c(c(=O)oc3c2C)CN(C(=O)c2ccc(C(=O)NS(=O)(=O)N3CCCC3)c(N3CC5CC5C3)c2F)CC4)CCN1C (stereo partly drawn) [Example 95, 2-(3-azabicyclo[3.1.0]hexan-3-yl)-3-fluoro-4-(8-((R)-3-(methoxymethyl)-4-methylpiperazin-1-yl)-7,10-dimethyl-5-oxo-1,3,4,5-tetrahydro-2H-chromeno[3,4-c]pyridine-3-carbonyl)-N-(pyrrolidin-1-ylsulfonyl)benzamide] |
| 1 to 10 | 1 to 10 | F (<3) | COC[C@H]1CN(c2ccc3c4c(c(=O)oc3c2Cl)CN(C(=O)c2ccc(C(=O)NS(=O)(=O)N(C)C)c(OC3CCCC3)c2F)CC4)CCN1C [Example 44, (R)-4-(7-chloro-8-(3-(methoxymethyl)-4-methylpiperazin-1-yl)-5-oxo-1,3,4,5-tetrahydro-2H-chromeno[3,4-c]pyridine-3-carbonyl)-2-(cyclopentyloxy)-N-(N,N-dimethylsulfamoyl)-3-fluorobenzamide] |
| 10 to 100 | 1 to 10 | – | COC[C@H]1CN(c2cc(C)c3c4c(c(=O)oc3c2C)CN(C(=O)c2ccc(C(=O)NS(=O)(=O)C3(C)CC3)c(N3CC5CC5C3)c2F)CC4)CCN1C (stereo partly drawn) [Example 71, 2-(3-azabicyclo[3.1.0]hexan-3-yl)-3-fluoro-4-(8-((R)-3-(methoxymethyl)-4-methylpiperazin-1-yl)-7,10-dimethyl-5-oxo-1,3,4,5-tetrahydro-2H-chromeno[3,4-c]pyridine-3-carbonyl)-N-((1-methylcyclopropyl)sulfonyl)benzamide] |
| 1 to 10 | 1 to 10 | G (^ 3 to 9.0) | COC[C@H]1CN(c2cc(C)c3c4c(c(=O)oc3c2C)CN(C(=O)c2ccc(C(=O)NS(=O)(=O)N(C)C)c(N3CCC[C@@H]3C)c2)CC4)CCN1C [Example 103, N-(N,N-dimethylsulfamoyl)-4-(8-((R)-3-(methoxymethyl)-4-methylpiperazin-1-yl)-7,10-dimethyl-5-oxo-1,3,4,5-tetrahydro-2H-chromeno[3,4-c]pyridine-3-carbonyl)-2-((S)-2-methylpyrrolidin-1-yl)benzamide] |
| 1 to 10 | 1 to 10 | G (^ 3 to 9.0) | COC[C@H]1CN(c2cc(C)c3c4c(c(=O)oc3c2C)CN(C(=O)c2ccc(C(=O)NS(=O)(=O)N(C)C)c(N3CC5CC5C3)c2)CC4)CCN1C (stereo partly drawn) [Example 47, 2-(3-azabicyclo[3.1.0]hexan-3-yl)-N-(N,N-dimethylsulfamoyl)-4-(8-((R)-3-(methoxymethyl)-4-methylpiperazin-1-yl)-7,10-dimethyl-5-oxo-1,3,4,5-tetrahydro-2H-chromeno[3,4-c]pyridine-3-carbonyl)benzamide] |
| 100 to 1000 | 10 to 100 | H (>9.0 to 30) | COC[C@H]1CN(c2cc(Cl)c3c4c(c(=O)oc3c2C)CN(C(=O)c2cc(N(C)C)c(C(=O)NS(=O)(=O)N3CC5(COC5)C3)cc2F)CC4)CCN1C [Example 282, (R)-N-((2-oxa-6-azaspiro[3.3]heptan-6-yl)sulfonyl)-4-(10-chloro-8-(3-(methoxymethyl)-4-methylpiperazin-1-yl)-7-methyl-5-oxo-1,3,4,5-tetrahydro-2H-chromeno[3,4-c]pyridine-3-carbonyl)-2-(dimethylamino)-5-fluorobenzamide] |
| 10 to 100 | 10 to 100 | F (<3) | COC[C@H]1CN(c2cc(C)c3c4c(c(=O)oc3c2C)CN(C(=O)c2cc(N3CCCC3)c(C(=O)NS(=O)(=O)N3CCCC3)cc2F)CC4)CCN1C [Example 141, (R)-5-fluoro-4-(8-(3-(methoxymethyl)-4-methylpiperazin-1-yl)-7,10-dimethyl-5-oxo-1,3,4,5-tetrahydro-2H-chromeno[3,4-c]pyridine-3-carbonyl)-2-(pyrrolidin-1-yl)-N-(pyrrolidin-1-ylsulfonyl)benzamide] |
| 100 to 1000 | 10 to 100 | H (>9.0 to 30) | COC[C@H]1CN(c2cc(Cl)c3c4c(c(=O)oc3c2C)CN(C(=O)c2cc(OC)c(C(=O)NS(=O)(=O)N(C3CC3)C3CC3)cc2F)CC4)CCN1C [Example 297, (R)-4-(10-chloro-8-(3-(methoxymethyl)-4-methylpiperazin-1-yl)-7-methyl-5-oxo-1,3,4,5-tetrahydro-2H-chromeno[3,4-c]pyridine-3-carbonyl)-N-(N,N-dicyclopropylsulfamoyl)-5-fluoro-2-methoxybenzamide] |
| 10 to 100 | 10 to 100 | F (<3) | CCOc1c(C(=O)NS(=O)(=O)N2CC3(CCC3)C2)ccc(C(=O)N2CCc3c(c(=O)oc4c(C)c(N5CCN(C)[C@@H](COC)C5)cc(C)c34)C2)c1F [Example 233] |
| 10 to 100 | 100 to 1000 | F (<3) | COC[C@H]1CN(c2ccc3c4c(c(=O)oc3c2C)CN(C(=O)c2ccc(C(=O)NS(=O)(=O)N3CCCC3)c(OC3C[C@@H]5C[C@@H]5C3)c2)CC4)CCN1C (mixture of isomers) [Example 114, 2-(bicyclo[3.1.0]hexan-3-yloxy)-4-(8-((R)-3-(methoxymethyl)-4-methylpiperazin-1-yl)-7-methyl-5-oxo-1,3,4,5-tetrahydro-2H-chromeno[3,4-c]pyridine-3-carbonyl)-N-(pyrrolidin-1-ylsulfonyl)benzamide] |
| 10 to 100 | 1 to 10 | – | COC[C@H]1CN(c2cc(C)c3c4c(c(=O)oc3c2C)CN(C(=O)c2ccc(C(=O)NS(=O)(=O)N(C)C)c(N3CCC(F)(F)C3)c2)CC4)CCN1C [Example 82, (R)-2-(3,3-difluoropyrrolidin-1-yl)-N-(N,N-dimethylsulfamoyl)-4-(8-(3-(methoxymethyl)-4-methylpiperazin-1-yl)-7,10-dimethyl-5-oxo-1,3,4,5-tetrahydro-2H-chromeno[3,4-c]pyridine-3-carbonyl)benzamide] |
| 100 to 1000 | 1 to 10 | – | CCOc1cc(C(=O)N2CCc3c(c(=O)oc4c(C)c(N5CCN(C)[C@@H](COC)C5)cc(C)c34)C2)c(F)cc1C(=O)NS(=O)(=O)N1CC[C@@H](F)C1 [Example 261, 2-ethoxy-5-fluoro-N-(((R)-3-fluoropyrrolidin-1-yl)sulfonyl)-4-(8-((R)-3-(methoxymethyl)-4-methylpiperazin-1-yl)-7,10-dimethyl-5-oxo-1,3,4,5-tetrahydro-2H-chromeno[3,4-c]pyridine-3-carbonyl)benzamide] |

| SMILES | IC50 [1] [nM] | IC50 [2] [nM] | MTHFD1/MTHFD2 IC50 ratio [2] |
| --- | --- | --- | --- |
| CCc1c(C(=O)NS(=O)(=O)N2C3CCC2CC3)ccc(C(=O)N2CCc3c(c(=O)oc4c(C)c(N5CCN(C)[C@@H](COC)C5)cc(C)c34)C2)c1F [Example 242] | 100 to 1000 | 10 to 100 | H (>9.0 to 30) |
| COC[C@H]1CN(c2ccc3c4c(c(=O)oc3c2C)CN(C(=O)c2ccc(C(=O)NS(=O)(=O)C3(C)CC3)c(N3C5CCC3CC5)c2)CC4)CCN1C [Example 17, (R)-2-(7-azabicyclo[2.2.1]heptan-7-yl)-4-(8-(3-(methoxymethyl)-4-methylpiperazin-1-yl)-7-methyl-5-oxo-1,3,4,5-tetrahydro-2H-chromeno[3,4-c]pyridine-3-carbonyl)-N-((1-methylcyclopropyl)sulfonyl)benzamide] | 1 to 10 | 10 to 100 | F (<3) |
| [2H]C([2H])([2H])Oc1c(C(=O)NS(=O)(=O)N2C3CCC2CC3)ccc(C(=O)N2CCc3c(c(=O)oc4c(C)c(N5CCN(C)[C@@H](COC)C5)cc(C)c34)C2)c1F [Example 252, (R)-N-((7-azabicyclo[2.2.1]heptan-7-yl)sulfonyl)-3-fluoro-2-(methoxy-d3)-4-(8-(3-(methoxymethyl)-4-methylpiperazin-1-yl)-7,10-dimethyl-5-oxo-1,3,4,5-tetrahydro-2H-chromeno[3,4-c]pyridine-3-carbonyl)benzamide] | 100 to 1000 | 1 to 10 | J (>30) |
| COC[C@H]1CN(c2ccc3c4c(c(=O)oc3c2C)CN(C(=O)c2ccc(C(=O)NS(=O)(=O)C3(C)CC3)c(OC3CCC3)c2)CC4)CCN1C [Example 7, (R)-2-cyclobutoxy-4-(8-(3-(methoxymethyl)-4-methylpiperazin-1-yl)-7-methyl-5-oxo-1,3,4,5-tetrahydro-2H-chromeno[3,4-c]pyridine-3-carbonyl)-N-((1-methylcyclopropyl)sulfonyl)benzamide] | 10 to 100 | 10 to 100 | F (<3) |
